Assay results from PubChem BioAssay AID330 (DTP/NCI, 2004).
Where “and” joins values, the source holds several entries; their conditions need not be identical. Equal values may be shown once. Toxic doses and inconclusive results are not listed.

Tested on: P388 leukemia ip, CD2F1 mice, survival T/C
Experiment: NCI In Vivo Anticancer Drug Screen. Data for tumor model P388 Leukemia (intraperitoneal) in CD2F1 (CDF1) mice
Details: endpoint: median survival time, higher = longer survival
Procedure, shortened: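 Mice carrying the transplanted tumor received test compound or vehicle. Survival was recorded in each group, and the value is the treated-group measurement divided by that of the vehicle-treated control group.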

[1] = dose: 100.0 mg/kg/injection, schedule: Q01DX001 (ip), vehicle: Klucel (hydroxypropylcellulose) (HPC)
[2] = dose: 100.0 mg/kg/injection, schedule: Q04DX003 (ip), vehicle: saline with Tween-80
[3] = dose: 200.0 mg/kg/injection, schedule: Q04DX003 (ip), vehicle: saline with Tween-80
[4] = dose: 100.0 mg/kg/injection, schedule: Q01DX001 (ip), vehicle: saline with Tween-80
[5] = dose: 50.0 mg/kg/injection, schedule: Q04DX003 (ip), vehicle: saline
[6] = dose: 100.0 mg/kg/injection, schedule: Q04DX003 (ip), vehicle: saline
[7] = dose: 200.0 mg/kg/injection, schedule: Q04DX003 (ip), vehicle: saline
[8] = dose: 60.0 mg/kg/injection, schedule: Q01DX005 (ip), vehicle: saline with Tween-80
[9] = dose: 120.0 mg/kg/injection, schedule: Q01DX005 (ip), vehicle: saline with Tween-80
[10] = dose: 240.0 mg/kg/injection, schedule: Q01DX005 (ip), vehicle: saline with Tween-80
[11] = dose: 400.0 mg/kg/injection, schedule: Q04DX003 (ip), vehicle: saline with Tween-80
[12] = dose: 1.5 mg/kg/injection, schedule: Q01DX009 (ip), vehicle: saline
[13] = dose: 3.0 mg/kg/injection, schedule: Q01DX009 (ip), vehicle: saline
[14] = dose: 6.0 mg/kg/injection, schedule: Q01DX009 (ip), vehicle: saline
[15] = dose: 25.0 mg/kg/injection, schedule: Q01DX009 (ip), vehicle: saline with Tween-80
[16] = dose: 0.75 mg/kg/injection, schedule: Q01DX009 (ip), vehicle: saline
[17] = dose: 50.0 mg/kg/injection, schedule: Q01DX009 (ip), vehicle: saline with Tween-80
[18] = dose: 100.0 mg/kg/injection, schedule: Q01DX009 (ip), vehicle: saline with Tween-80

## Oc1ccccc1N=Cc1ccc2c(c1)OCO2
dose: 25.0 mg/kg/injection, schedule: Q01DX005 (ip), vehicle: saline with Tween-80
  T/C: 103 % of control
dose: 50.0 mg/kg/injection, schedule: Q01DX005 (ip), vehicle: saline with Tween-80
  T/C: 110 % of control
dose: 100.0 mg/kg/injection, schedule: Q01DX005 (ip), vehicle: saline with Tween-80
  T/C: 104 % of control
dose: 200.0 mg/kg/injection, schedule: Q01DX005 (ip), vehicle: saline with Tween-80
  T/C: 110 % of control

## CCOC(=O)CC(=O)NCCc1cccc(OC)c1OC
dose: 100.0 mg/kg/injection, schedule: Q04DX003 (ip), vehicle: other
  T/C: 100 % of control
dose: 200.0 mg/kg/injection, schedule: Q04DX003 (ip), vehicle: other
  T/C: 100 % of control
dose: 400.0 mg/kg/injection, schedule: Q04DX003 (ip), vehicle: other
  T/C: 105 % of control

## CC1(C)CC(OP(=S)(N2CC2)N2CC2)CC(C)(C)N1O
[1]
  T/C: 160 % of control
dose: 400.0 mg/kg/injection, schedule: Q01DX001 (ip), vehicle: Klucel (hydroxypropylcellulose) (HPC)
  T/C: 187 % of control

## c1ccc(NC2=NCCO2)nc1
dose: 50.0 mg/kg/injection, schedule: Q04DX003 (ip), vehicle: saline with Tween-80
  T/C: 100 % of control
[2]
  T/C: 95 % of control
[3]
  T/C: 100 % of control

## NSc1ccccn1
dose: 25.0 mg/kg/injection, schedule: Q01DX001 (ip), vehicle: Klucel (hydroxypropylcellulose) (HPC)
  T/C: 96 % of control
dose: 50.0 mg/kg/injection, schedule: Q01DX001 (ip), vehicle: Klucel (hydroxypropylcellulose) (HPC)
  T/C: 96 % of control
[1]
  T/C: 97 % of control
[4]
  T/C: 102 % of control

## CCN=C1SC2C(=O)N(C)C(S1)C(=O)N2C
dose: 6.25 mg/kg/injection, schedule: Q04DX002 (ip), vehicle: saline
  T/C: 100 % of control
dose: 12.5 mg/kg/injection, schedule: Q04DX002 (ip), vehicle: saline
  T/C: 103 % of control
dose: 25.0 mg/kg/injection, schedule: Q04DX002 (ip), vehicle: saline
  T/C: 105 % of control

## ON=C1CCC(=NO)CC1
dose: 25.0 mg/kg/injection, schedule: Q04DX003 (ip), vehicle: saline
  T/C: 101 % of control
[5]
  T/C: 100 % of control
[6]
  T/C: 95 % of control
[7]
  T/C: 107 % of control
dose: 400.0 mg/kg/injection, schedule: Q04DX003 (ip), vehicle: saline
  T/C: 101 % of control

## [Cl][Pt+2][Cl].[NH-]C1CCCCCCC1.[NH-]C1CCCCCCC1
dose: 12.5 mg/kg/injection, schedule: Q01DX009 (ip), vehicle: other
  T/C: 106 % of control
dose: 25.0 mg/kg/injection, schedule: Q01DX009 (ip), vehicle: other
  T/C: 97 % of control
dose: 50.0 mg/kg/injection, schedule: Q01DX009 (ip), vehicle: other
  T/C: 101 % of control
dose: 100.0 mg/kg/injection, schedule: Q01DX009 (ip), vehicle: other
  T/C: 117 % of control
dose: 200.0 mg/kg/injection, schedule: Q01DX009 (ip), vehicle: other
  T/C: 108 % of control

## CCN(CC)CCOCC(=O)Nc1c(C)cccc1Cl
[5]
  T/C: 102 % of control and 113 % of control and 96 % of control
[6]
  T/C: 100 % of control and 101 % of control and 120 % of control
[7]
  T/C: 88 % of control and 92 % of control and 95 % of control

## COC(=O)C(=O)C(C(=O)c1cccc2ccccc12)c1nc2n(c1O)C(=N)N=N2 (centres undefined)
[8]
  T/C: 109 % of control
[9]
  T/C: 104 % of control
[10]
  T/C: 100 % of control

## O=C1OC(=O)C2C3C=CC(C12)C1C2C(=O)OC(=O)C2C31 (centres undefined)
[2]
  T/C: 103 % of control
[3]
  T/C: 99 % of control
[11]
  T/C: 96 % of control
dose: 600.0 mg/kg/injection, schedule: Q04DX003 (ip), vehicle: saline with Tween-80
  T/C: 96 % of control

## COc1ccc(C2OC(=N)C(=S)N2C)cc1O (centres undefined)
dose: 60.0 mg/kg/injection, schedule: Q01DX005 (ip), vehicle: Klucel (hydroxypropylcellulose) (HPC)
  T/C: 112 % of control
dose: 120.0 mg/kg/injection, schedule: Q01DX005 (ip), vehicle: Klucel (hydroxypropylcellulose) (HPC)
  T/C: 109 % of control
dose: 240.0 mg/kg/injection, schedule: Q01DX005 (ip), vehicle: Klucel (hydroxypropylcellulose) (HPC)
  T/C: 112 % of control

## CN1C(c2ccccc2)=C(C#N)C(=O)CC(c2ccco2)N1C (centres undefined)
[8]
  T/C: 98 % of control
[9]
  T/C: 92 % of control
[10]
  T/C: 89 % of control

## COc1cc(O)c2c(=O)c3c(O)c(OC4OC(COC5OC(C)C(OC(C)=O)C(O)C5O)C(O)C(O)C4O)ccc3oc2c1 (centres undefined)
[12]
  T/C: 100 % of control
[13]
  T/C: 100 % of control
[14]
  T/C: 107 % of control
dose: 12.0 mg/kg/injection, schedule: Q01DX009 (ip), vehicle: saline
  T/C: 103 % of control

## Nc1ccc(N=O)c(N)n1
dose: 0.78 mg/kg/injection, schedule: Q01DX009 (ip), vehicle: saline
  T/C: 98 % of control
dose: 1.56 mg/kg/injection, schedule: Q01DX009 (ip), vehicle: saline
  T/C: 86 % of control
dose: 6.25 mg/kg/injection, schedule: Q01DX009 (ip), vehicle: saline with Tween-80
  T/C: 107 % of control
dose: 12.5 mg/kg/injection, schedule: Q01DX009 (ip), vehicle: saline with Tween-80
  T/C: 98 % of control
dose: 12.5 mg/kg/injection, schedule: Q01DX009 (ip), vehicle: saline
  T/C: 98 % of control
[15]
  T/C: 100 % of control
dose: 50.0 mg/kg/injection, schedule: Q01DX009 (ip), vehicle: saline
  T/C: 106 % of control

## [CH3][Pb]([CH3])([CH3])[Cl]
[16]
  T/C: 90 % of control and 92 % of control
[12]
  T/C: 90 % of control and 93 % of control and 97 % of control
[13]
  T/C: 94 % of control (2×) and 97 % of control
[14]
  T/C: 95 % of control

## OCCN1CCSC1=S
[17]
  T/C: 95 % of control
[18]
  T/C: 90 % of control
dose: 200.0 mg/kg/injection, schedule: Q01DX009 (ip), vehicle: saline with Tween-80
  T/C: 100 % of control

## O=C1C2C=CC(c3ccccc32)N1/C=C/c1ccccc1 (centres undefined)
dose: 100.0 mg/kg/injection, schedule: Q04DX003 (ip), vehicle: Klucel (hydroxypropylcellulose) (HPC)
  T/C: 101 % of control
dose: 200.0 mg/kg/injection, schedule: Q04DX003 (ip), vehicle: Klucel (hydroxypropylcellulose) (HPC)
  T/C: 99 % of control
dose: 400.0 mg/kg/injection, schedule: Q04DX003 (ip), vehicle: Klucel (hydroxypropylcellulose) (HPC)
  T/C: 97 % of control

## CN1CNC(=O)c2n[nH]nc21
dose: 12.5 mg/kg/injection, schedule: Q04DX002 (ip), vehicle: Klucel (hydroxypropylcellulose) (HPC)
  T/C: 99 % of control
dose: 25.0 mg/kg/injection, schedule: Q04DX002 (ip), vehicle: Klucel (hydroxypropylcellulose) (HPC)
  T/C: 108 % of control
dose: 50.0 mg/kg/injection, schedule: Q04DX002 (ip), vehicle: Klucel (hydroxypropylcellulose) (HPC)
  T/C: 100 % of control and 102 % of control

## CC(C)(c1ccccc1)c1ccc(O)cc1
[15]
  T/C: 100 % of control
[17]
  T/C: 100 % of control
[18]
  T/C: 100 % of control
[2]
  T/C: 90 % of control

## O=C1CCC([N+](=O)[O-])([N+](=O)[O-])CO1
[4]
  T/C: 111 % of control
dose: 200.0 mg/kg/injection, schedule: Q01DX001 (ip), vehicle: saline with Tween-80
  T/C: 106 % of control
dose: 400.0 mg/kg/injection, schedule: Q01DX001 (ip), vehicle: saline with Tween-80
  T/C: 113 % of control

## CC1(C2=CCCCC2)CCC(=O)NC1=O (centres undefined)
[8]
  T/C: 100 % of control
[9]
  T/C: 98 % of control
[10]
  T/C: 98 % of control

## C=C[P+](c1ccccc1)(c1ccccc1)c1ccccc1
dose: 0.37 mg/kg/injection, schedule: Q01DX009 (ip), vehicle: saline
  T/C: 104 % of control
[16]
  T/C: 105 % of control
[12]
  T/C: 116 % of control

## CC(=O)C1=C(c2ccccc2)NC(=O)NC1c1ccco1 (centres undefined)
[2]
  T/C: 95 % of control
[3]
  T/C: 95 % of control
[11]
  T/C: 90 % of control

## CCC[CH2][Sn]([CH2]CCC)([O][P+](=O)C[Si](C)(C)c1ccccc1)[O][P+](=O)C[Si](C)(C)c1ccccc1 (centres undefined)
[8]
  T/C: 108 % of control
[9]
  T/C: 115 % of control
[10]
  T/C: 122 % of control

## CCOP(=S)(N/N=C/c1ccc(Br)s1)OCC
dose: 50.0 mg/kg/injection, schedule: Q01DX005 (ip), vehicle: Klucel (hydroxypropylcellulose) (HPC)
  T/C: 101 % of control
dose: 100.0 mg/kg/injection, schedule: Q01DX005 (ip), vehicle: Klucel (hydroxypropylcellulose) (HPC)
  T/C: 106 % of control
dose: 200.0 mg/kg/injection, schedule: Q01DX005 (ip), vehicle: Klucel (hydroxypropylcellulose) (HPC)
  T/C: 104 % of control

## CCCCC1CCC(=O)NC1=O (centres undefined)
[8]
  T/C: 107 % of control
[9]
  T/C: 103 % of control
[10]
  T/C: 107 % of control
